Test results: patent US20240148895A1, “ANTIBODY-DRUG CONJUGATE” (Eisai R&D Management Co., Ltd., priority 2022, published 2024)
pIC50: −log10 of the molar value.

Tests used:
[1] = tested on: Human pancreatic cancer cell line HPAF-II; assay: HPAF-II growth inhibition assay (Example 317); format: cell-based; settings: 120 h, HPAF-II cells, 5 days culture, CellTiter Glo 2.0 (Example 317, Table 11), read-out: Absolute IC50
Procedure: Cells of the human pancreatic cancer cell line HPAF-II (ATCC Number CRL-1997) were maintenance cultured in a 5% CO2 incubator (37° C.) using RPMI 1640 (FujiFilm-Wako Pure Chemical Industries) containing 10% fetal bovine serum (FBS: SIGMA 173012) and penicillin/streptomycin (FujiFilm-Wako Pure Chemical Industries) (hereunder referred to simply as “culture medium”). After adding 25 μL of HPAF-II cell suspension prepared to 3.2×10^4 cells/mL using culture medium into each well of a 384-well plate (Greiner 781091), the cells were cultured overnight in a 5% CO2 incubator (37° C.). On the following day, 25 μL of the test substance diluted with culture medium was added to each well, and culturing was continued for 5 days in a 5% CO2 incubator (37° C.). Next, 25 μL of CellTiter Glo™ 2.0 (Promega) was added to each well, and the plate contents were mixed for 5 minutes using a plate mixer. The plate was stationed for 10 minutes at room temperature while shielded from light, and then the luminous intensity was measured with an ENVISION′ (Perkin-Elmer). The luminescence value of the wells with addition of test substance was determined as a relative value, with 100% as the luminescence value of the wells with cells but without addition of the test substance and 0% as the luminescence value of the wells without cells. […]

AsPC-1/Cas9 cell line = assay: AsPC-1/Cas9 growth inhibition assay; format: cell-based, human; settings: Homo sapiens, ASPC1, 120 h, AsPC-1/Cas9 cells, 5 days culture, CellTiter Glo 2.0; read-out: Absolute IC50—Day 5 (nM) AsPC-1 Cas9
Procedure: The human pancreatic cancer cell line AsPC-1 (ATCC Number CRL1682) was infected with Edit-R Lentiviral hCMV-Blast-Cas9 Nuclease Particle (Dharmacon, VCAS10124) in the presence of 8 μg/ml of Hexadimethrine bromide (Sigma, H9268), and after 24 hours it was exposed to 10 μg/ml of Blastcidin S (Thermo, A11139) to remove the uninfected cells, thereby establishing an AsPC-1/Cas9 cell line. The cells were maintenance cultured in a 5% CO2 incubator (37° C.) using RPMI-1640 (FujiFilm-Wako Pure Chemical Industries) containing 10% fetal bovine serum (FBS: SIGMA 173012) and penicillin/streptomycin (FujiFilm-Wako Pure Chemical Industries) (hereunder referred to simply as “culture medium”). After adding 45 μL of AsPC-1/Cas9 cell suspension prepared to 2.0×10^4 cells/mL using culture medium into each well of a 384-well plate (Greiner 781091), the cells were cultured overnight in a 5% CO2 incubator (37° C.). On the following day, 5 μL of the test substance diluted with culture medium was added to each well, and culturing was continued for 5 days in a 5% CO2 incubator (37° C.). Next, 25 μL of CellTiter Glo™ 2.0 (Promega) was added to each well, and the plate contents were mixed for 5 minutes using a plate mixer. The plate was stationed for 10 minutes at room temperature while shielded from light, and then the luminous intensity was measured with an ENVISION™ (Perkin-Elmer). The luminescence value of the wells with addition of test substance was determined as a relative value, with 100% as the luminescence value of the wells with cells but without addition of the test substance, and 0% as the luminescence value of the wells without cells. A plot of test substance concentration against luminescence value % approximated a 4-parameter logistic curve, and the test substance concentration necessary for 50% inhibition of cell growth (Absolute IC50) was calculated, and is shown in Table 4.

[2] = biological target: HiBiT tagged BRD4-BD1 protein in HEK293/LgBiT/hPGK/HiBiT-BRD4-BD1 cells (Homo sapiens, UniProt O60885); assay: BET BD1 domain degradation assay; format: cell-based; parameters: HiBit-linker-BRD4 BD1(1-209); host or cells: HEK293 (ATCC CRL-1573) stably transduced with LgBiT and HiBiT-BRD4-BD1; settings: concentration for 50% reduction in HiBiT-BRD4-BD1 protein level, 3 hours, read-out: Absolute DC50—3 h (nM) HEK293_HiBiT-BRD4-BD1
Source text: HEK293/LgBiT/hPGK/HiBiT-BRD4-BD1 cells were established by introducing LgBiT and HiBiT-BRD4-BD1 into the human fetus renal cell line HEK293 (ATCC Number CRL-1573). LgBiT was introduced using lentivirus vector LV[Exp]-Bsd-EFS>{LgBiT}, and HiBiT-BRD4-BD1 was introduced with lentivirus vector LV[Exp]-Puro-hPGK>{HiBit-linker-BRD4 BD1(1-209)}. The vector plasmids LV[Exp]-Bsd-EFS>{LgBiT} and LV[Exp]-Puro-hPGK>{HiBit-linker-BRD4_BD1(1-209)} were constructed by VectorBuilder Co. The lentivirus was produced using a Mission Lentivirus Packaging Mix (Sigma) according to the manufacturer's protocol. Viral infection and drug selection of infected cells were carried out by the following published method (Akagi T. et. al, PNAS 2003; 100:13567-72). The cells were maintenance cultured in a 5% CO2 incubator (37° C.), using culture medium. A 45 μL portion of cell suspension of HEK293/LgBiT/hPGK/HiBiT-BRD4-BD1 cells prepared to 6.7×10^4 cells/mL using culture medium was added to each well of a collagen I-coated 384-well plate (Falcon 356667), and the cells were cultured overnight in a 5% CO2 incubator (37° C.). On the following day, 5 μL of test substance diluted with RPMI-1640 (FujiFilm-Wako Pure Chemical Industries) containing 10% fetal bovine serum (FBS: SIGMA 173012) and penicillin/streptomycin (FujiFilm-Wako Pure Chemical Industries) was added to each well, and culturing was continued for 3 hours in a 5% CO2 incubator (37° C.). The luminous intensity was measured using a Nono-Glo HiBiT Lytic Detection System (Promega), and the intracellular HiBiT tagged BRD4-BD1 protein level was calculated. After culturing, 25 μL of measuring reagent was added to each well and the plate contents were mixed for 5 minutes using a plate mixer. The plate was stationed for 10 minutes at room temperature while shielded from light, and then the luminous intensity was measured with an ENVISION′ (Perkin-Elmer). The luminescence value of the wells with addition of test substance was determined as a relative value, with 100% as the luminescence value of the wells with cells but without addition of the test substance, and 0% as the luminescence value of the wells without cells. A plot of test substance concentration against luminescence value % approximated a 4-parameter logistic curve, and the test substance concentration necessary for 50% reduction in protein level (Absolute DC50) was calculated and is shown in Table 4.

What does the source list for COc1ccc(C#CCNC2(C)CCN(C3CCN(c4nc([C@@](CO)(OC5CC5)c5ccccc5)c5cc(-c6cn(C)c(=O)c7[nH]ccc67)ccc5n4)CC3)CC2)cc1N1CCC(=O)N(CNC(=O)[C@H](CC(N)=O)NC(C)=O)C1=O [Example 135, (S)-2-Acetamide-N1-((3-(5-(3-((1′-(4-((S)-1-cyclopropoxy-2-hydroxy-1-phenylethyl)-6-(6-methyl-7-oxo-6,7-dihydro-1H-pyrrolo[2,3-c]pyridin-4-yl)quinazolin-2-yl)-4-methyl-[1,4′-bipiperidin]-4-yl)amino)prop-1-yn-1-yl)-2-methoxyphenyl)-2,6-dioxotetrahydropyrimidine-1(2H)-yl)methyl)succinamide]?
pIC50 [1]: 8.54; IC50 (AsPC-1/Cas9 cell line): 2.4 nM; DC50 [2]: > 100 nM
